Active and inactive are the calls of the source. The rule behind the calls is not given here.
Key:
[1] = system: Jurkat; assay: Inhibition of TNF gene expression in FRT Jurkat TNF reporter cells at 100 uM; type: functional; conditions: Homo sapiens
[2] = system: Jurkat; assay: Inhibition of TNF gene expression in FRT Jurkat TNF reporter cells at 10 uM; type: functional; conditions: Homo sapiens
[3] = system: Jurkat; assay: Inhibition of TNF gene expression in FRT-Jurkat TNF reporter cells at 1 uM; type: functional; conditions: Homo sapiens
[4] = system: Jurkat; assay: Increase in cell death in human FRT Jurkat TNF reporter cell; type: functional, cell-based
[5] = system: Jurkat; assay: Increase in Cytotoxicity in human FRT Jurkat TNF reporter cell at 100 uM; type: functional, cell-based
[6] = system: Jurkat; assay: Viability of the FRT Jurkat TNF reporter cells at 1 uM; type: functional, Homo sapiens
[7] = system: Jurkat; assay: Increase in inhibition of TNF gene expression in FRT Jurkat TNF reporter cells after 30 hrs; type: functional, cell-based; conditions: Homo sapiens

Row | SMILES | inhibition at 100 µM [1] [%] | further results
1 | COC(=O)/C=C/c1ccc(N2C(=O)c3ccccc3C2=O)cc1 | 41 | –
2 | O=C1c2ccccc2C(=O)N1c1ccc(I)cc1 | 36 | –
3 | O=C1c2ccccc2C(=O)N1c1cccc(I)c1 | 37 | –
4 | CCCCO/C=C/c1ccc(N2C(=O)c3ccccc3C2=O)cc1 | 48 | –
5 | CCCCOC(=O)/C=C/c1ccccc1N1C(=O)c2ccccc2C1=O | 52 | –
6 | O=C1CCC(N2C(=O)c3ccc(/C=C/N4CCCC4=O)cc3C2=O)C(=O)N1 (centres undefined) | 36 | –
7 | CCCCOC(=O)/C=C/c1cccc2c1C(=O)N(C1CCC(=O)NC1=O)C2=O (centres undefined) | 44 | –
8 | O=C1CCC(N2C(=O)c3cccc(C4CC=CO4)c3C2=O)C(=O)N1 (centres undefined) | 50 | –
9 | COC(=O)/C=C/c1cccc2c1C(=O)N(C1CCC(=O)NC1=O)C2=O (centres undefined) | 40 | –
10 | O=C1CCC(N2C(=O)c3ccccc3C2=O)C(=O)N1 (centres undefined) [THALIDOMIDE] | 38 | inhibition at 10 µM [2]: 35%; inhibition at 1 µM [3]: 31%
11 | O=C1C=C(c2cccc3c2C(=O)N(C2CCC(=O)NC2=O)C3=O)CCC1 (centres undefined) | 38 | –
12 | CCCCO/C=C/c1ccc2c(c1)C(=O)N(C1CCC(=O)NC1=O)C2=O (centres undefined) | 69 | inhibition at 10 µM [2]: 52%; Activity [4]: Active; Activity [5]: Active; Activity [6]: 100%; inhibition at 1 µM [3]: 32%; Activity [7]: Dose-dependent effect
13 | CCCCOC(=O)/C=C/c1ccc(N2C(=O)c3ccccc3C2=O)cc1 | 35 | –
14 | CCCCO/C=C/c1ccccc1N1C(=O)c2ccccc2C1=O | 47 | –
15 | O=C1C=C(c2ccc3c(c2)C(=O)N(C2CCC(=O)NC2=O)C3=O)CCC1 (centres undefined) | 35 | –
16 | O=C1c2ccccc2C(=O)N1c1cccc(C2CC=CO2)c1 (centres undefined) | 50 | –

Row | SMILES | inhibition at 100 µM [1] [%] | further results
17 | COC(=O)/C=C/c1ccccc1N1C(=O)c2ccccc2C1=O | 48 | –
18 | CCCCOC(=O)/C=C/c1cccc(N2C(=O)c3ccccc3C2=O)c1 | 35 | –
19 | CCCCO/C=C/c1cccc(N2C(=O)c3ccccc3C2=O)c1 | 49 | –
20 | O=C1CCC(N2C(=O)c3ccc(/C=C/C4CC=CO4)cc3C2=O)C(=O)N1 (centres undefined) | 40 | –
21 | CCCCO/C=C/c1cccc2c1C(=O)N(C1CCC(=O)NC1=O)C2=O (centres undefined) | 47 | –
22 | O=C1c2ccccc2C(=O)N1c1ccc(C2CC=CO2)cc1 (centres undefined) | 38 | –
23 | O=C1CCC(N2C(=O)c3cccc(/C=C/N4CCCC4=O)c3C2=O)C(=O)N1 (centres undefined) | 38 | –
24 | O=C1C=C(c2cccc(N3C(=O)c4ccccc4C3=O)c2)CCC1 | 47 | –
25 | CCCCOC(=O)/C=C/c1ccc2c(c1)C(=O)N(C1CCC(=O)NC1=O)C2=O (centres undefined) | 42 | –
26 | COC(=O)/C=C/c1cccc(N2C(=O)c3ccccc3C2=O)c1 | 44 | –
27 | O=C1c2ccccc2C(=O)N1c1ccccc1I | 40 | –
28 | O=C1CCC(N2C(=O)c3cccc(I)c3C2=O)C(=O)N1 (centres undefined) | 37 | –
29 | O=C1CCCN1/C=C/c1cccc(N2C(=O)c3ccccc3C2=O)c1 | 36 | –
30 | COC(=O)/C=C/c1ccc2c(c1)C(=O)N(C1CCC(=O)NC1=O)C2=O (centres undefined) | 39 | –
31 | O=C1CCC(N2C(=O)c3ccc(Br)cc3C2=O)C(=O)N1 (centres undefined) | 35 | –
